This is an account of results in publication PMC3461280 (Bioorganic & medicinal chemistry letters, 2012).

For data set [1] the following is noted: cited from earlier work.
The next data set concerns the target human D3 receptor (Homo sapiens, UniProt P35462). The format is cell-based. The conditions noted are these: D3 functional mitogenesis assay.
For data set [2] the following is noted: cited from earlier work. This is another data set of the same source.
For a further data set, the system named is hERG potassium channel. The conditions noted are these: cited from earlier work.
The next data set has as its system P450 isoforms. The conditions noted are these: cited from earlier work.
For data set [3] the following is noted: cited from earlier work. This is another data set of the same source.
For data set [4] the following is noted: rat; cited from earlier work.

human D3 receptor, sequence (P35462 whole entry): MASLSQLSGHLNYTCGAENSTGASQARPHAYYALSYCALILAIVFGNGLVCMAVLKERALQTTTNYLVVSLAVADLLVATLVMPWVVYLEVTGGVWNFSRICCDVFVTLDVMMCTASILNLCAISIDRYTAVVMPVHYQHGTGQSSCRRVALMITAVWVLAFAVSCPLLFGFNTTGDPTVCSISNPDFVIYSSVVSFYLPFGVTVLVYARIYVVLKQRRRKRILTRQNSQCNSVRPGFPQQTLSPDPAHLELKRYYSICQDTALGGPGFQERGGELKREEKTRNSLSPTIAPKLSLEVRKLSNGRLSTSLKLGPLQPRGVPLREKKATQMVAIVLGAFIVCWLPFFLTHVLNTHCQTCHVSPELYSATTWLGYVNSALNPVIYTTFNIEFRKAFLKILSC

Consider `CCCN(CC[C@H]1CC[C@H](NC(=O)/C=C/c2ccccc2)CC1)[C@H]1CCc2nc(N)sc2C1` [Compound 10], for which, in data set [1], the aqueous solubility result is on record as “excellent”.

`CCCN(CC[C@H]1CC[C@H](NC(=O)c2cccc(-c3noc(C)n3)c2)CC1)[C@H]1CCc2nc(N)sc2C1` [Compound 38]: the “functional activity at the D3 receptor” value on human D3 receptor is listed as “full agonists”.

For `Cc1ncoc1-c1nnc(SCCCN2CC3CC3(c3ccc(C(F)(F)F)cc3F)C2)n1C` (stereo not shown) [Compound 3], the oral bioavailability entry in data set [2] is reported as “excellent”. Besides, in the data set with hERG potassium channel, the “inhibition at the hERG channel” value is recorded as “weak inhibition”. Moreover, the “inhibition on all the P450 isoforms” value in the data set with P450 isoforms was “weak inhibition”. Also, in data set [3], the CNS penetration result is “good”.

For the compound `CCCN(CC[C@H]1CC[C@H](NC(=O)c2ccc3ccccc3c2)CC1)[C@H]1CCc2nc(N)sc2C1` [Compound 11], the aqueous solubility entry in data set [1] was “excellent”.

Regarding `CCCN(CC[C@H]1CC[C@H](NS(=O)(=O)c2cccnc2Cl)CC1)[C@H]1CCc2nc(N)sc2C1` [Compound 52], the “functional activity at the D3 receptor” value on human D3 receptor was “full agonists”.

As to `Cc1nc(-c2cccc(C(=O)N[C@H]3CC[C@H](CCN4CCc5ccc(S(C)(=O)=O)cc5CC4)CC3)c2)no1` [SB-414796], the bioavailability result in data set [4] is on record as “excellent”. The CNS penetration entry in data set [3] is listed as “good”.
